Reference: patent publication US20080267942A1, “BENZAZEPIN-2(1H)-ONE DERIVATIVES” (Pfizer Limited, priority 2006, published 2008)

What was measured:
[1] = target: T1, bovine beta-2 adrenoceptor (Bos taurus, UniProt Q28044); assay: cAMP assay in CHO cells transfected with the bovine beta-2 adrenoceptor (DiscoveRx Hit Hunter cAMP II); assay type: cell-based; conditions: CHO cells transfected with bovine beta-2 adrenoceptor, 30 minutes incubation with compound
T1 construct: expressed in transfected cells; host or cells: CHO cells
T1 sequence (Q28044 whole entry): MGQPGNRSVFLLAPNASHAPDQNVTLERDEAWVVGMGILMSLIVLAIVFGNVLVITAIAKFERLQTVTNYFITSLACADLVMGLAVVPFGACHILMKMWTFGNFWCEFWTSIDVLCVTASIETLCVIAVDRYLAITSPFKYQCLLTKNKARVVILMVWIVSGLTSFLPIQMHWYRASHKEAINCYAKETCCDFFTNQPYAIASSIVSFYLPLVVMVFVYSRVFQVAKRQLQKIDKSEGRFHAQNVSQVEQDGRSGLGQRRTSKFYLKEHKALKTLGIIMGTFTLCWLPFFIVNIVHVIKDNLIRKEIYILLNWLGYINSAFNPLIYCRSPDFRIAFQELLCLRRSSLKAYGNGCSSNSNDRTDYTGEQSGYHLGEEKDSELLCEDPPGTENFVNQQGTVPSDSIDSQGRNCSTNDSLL
Procedure: (§1) CHO cells transfected with the bovine or porcine beta-2 adrenceptors were maintained in culture in DMEM/HAMS F12+10% FBS+2 mM glutamine+500 μg/ml geneticin (for the porcine receptor the medium was supplement with 1.5 mM HEPES) at 37° C. with a 5% CO2 atmosphere.
(§2) Cells were plated into 96 well viewplates in medium and incubated overnight at 37° C. with a 5% CO2 atmosphere. The cells were pre-incubated with 0.5 mM IBMX in PBS for 30 minutes prior to incubation with increasing concentrations of experimental compound (5×10^−12 to 10^−5M) for 30 minutes at 37° C. with a 5% CO2 atmosphere. At the end of the incubation time the compound was removed and the cells assayed for cAMP using the DiscoveRx Hit Hunter cAMP II™ assay kit.
(§3) Duplicate samples were run for each experimental compound and the data generated was analysed using EC50 analysis software in Graphpad Prism.

[2] = target: T2, porcine beta-2 adrenoceptor (Sus scrofa, UniProt Q28997); assay: cAMP assay in CHO cells transfected with the porcine beta-2 adrenoceptor (DiscoveRx Hit Hunter cAMP II); assay type: cell-based; conditions: CHO cells transfected with porcine beta-2 adrenoceptor, 30 minutes incubation with compound
T2 construct: expressed in transfected cells; host or cells: CHO cells
T2 sequence (Q28997 whole entry): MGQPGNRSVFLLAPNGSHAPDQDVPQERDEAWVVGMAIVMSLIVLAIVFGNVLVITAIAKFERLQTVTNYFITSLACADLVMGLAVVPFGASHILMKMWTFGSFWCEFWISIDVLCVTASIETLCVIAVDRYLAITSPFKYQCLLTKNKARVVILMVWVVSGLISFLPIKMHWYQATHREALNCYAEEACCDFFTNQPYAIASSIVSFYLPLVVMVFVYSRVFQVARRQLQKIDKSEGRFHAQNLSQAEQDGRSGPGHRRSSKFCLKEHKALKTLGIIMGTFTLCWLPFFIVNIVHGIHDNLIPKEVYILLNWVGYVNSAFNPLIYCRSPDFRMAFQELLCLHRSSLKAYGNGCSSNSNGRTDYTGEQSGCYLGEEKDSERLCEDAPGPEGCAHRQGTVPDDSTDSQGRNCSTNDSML
Procedure: as §1, §2, §3

SMILES	EC50 [1]	EC50 [2]
CC(CCc1cc(F)cc2cc[nH]c12)N[C@@H]1CCn2c(=O)[nH]c3cccc(c32)[C@H]1O (mixture of isomers) [Example 1a, 6-{[3-(5-Fluoro-1H-indol-7-yl)-1-methylpropyl]amino}-7-hydroxy-4,5,6,7-tetrahydroimidazo[4,5,1-jk][1]benzazepin-2(1H)-one]	0.5 nM	1.4 nM
CC(CCc1cc(F)cc2cc[nH]c12)N[C@@H]1CCn2c(=O)[nH]c3cccc(c32)[C@H]1O (mixture of isomers) [Example 1b, 6-{[3-(5-Fluoro-1H-indol-7-yl)-1-methylpropyl]amino}-7-hydroxy-4,5,6,7-tetrahydroimidazo[4,5,1-jk][1]benzazepin-2(1H)-one]	0.7 nM	1 nM
CC(CCc1ccc(C(=O)O)o1)N[C@@H]1CCn2c(=O)[nH]c3cccc(c32)[C@H]1O (mixture of isomers) [Example 2, 5-(3-{[7-Hydroxy-2-oxo-1,2,4,5,6,7-hexahydroimidazo[4,5,1-jk][1]benzazepin-6-yl]amino}butyl)-2-furoic acid]	171 nM	31 nM
Cc1[nH]c2ccccc2c1CCC(C)N[C@@H]1CCn2c(=O)[nH]c3cccc(c32)[C@H]1O (mixture of isomers) [Example 3b, 7-Hydroxy-6-{[1-methyl-3-(2-methyl-1H-indol-3-yl)propyl]amino}-4,5,6,7-tetrahydroimidazo[4,5,1-jk][1]benzazepin-2(1H)-one]	5.5 nM	3 nM
CC(CCc1cccc(=O)[nH]1)N[C@@H]1CCn2c(=O)[nH]c3cccc(c32)[C@H]1O (mixture of isomers) [Example 7c, 7-Hydroxy-6-{[1-methyl-3-(6-oxo-1,6-dihydropyridin-2-yl)propyl]amino}-4,5,6,7-tetrahydroimidazo[4,5,1-jk][1]benzazepin-2(1H)-one]	3.8 nM	
CC(CCn1cnc2cc(F)cc(F)c21)N[C@@H]1CCn2c(=O)[nH]c3cccc(c32)[C@H]1O (single isomer, unassigned) [Example 69]		0.4 nM
Cc1nnsc1CCC(C)N[C@@H]1CCn2c(=O)[nH]c3cccc(c32)[C@H]1O (single isomer, unassigned) [Example 70]		3.3 nM
CC(CCn1cnnc1)N[C@@H]1CCn2c(=O)[nH]c3cccc(c32)[C@H]1O (single isomer, unassigned) [Example 71]		15.1 nM
CC(CCc1cncnc1)N[C@@H]1CCn2c(=O)[nH]c3cccc(c32)[C@H]1O (single isomer, unassigned) [Example 72]		2.7 nM
COc1cncc(CCC(C)N[C@@H]2CCn3c(=O)[nH]c4cccc(c43)[C@H]2O)c1 (single isomer, unassigned) [Example 73]		0.8 nM
CC(CCc1cnc(O)s1)N[C@@H]1CCn2c(=O)[nH]c3cccc(c32)[C@H]1O (single isomer, unassigned) [Example 74]		4.7 nM
CC(CCn1nnc2ccccc21)N[C@@H]1CCn2c(=O)[nH]c3cccc(c32)[C@H]1O (single isomer, unassigned) [Example 75]		4.7 nM
CC(CCn1cnc2cnccc21)N[C@@H]1CCn2c(=O)[nH]c3cccc(c32)[C@H]1O (single isomer, unassigned) [Example 76]		2 nM
CC(CCn1cnc2ncccc21)N[C@@H]1CCn2c(=O)[nH]c3cccc(c32)[C@H]1O (single isomer, unassigned) [Example 77]		2.8 nM
Cc1nc2ccccc2n1CCC(C)N[C@@H]1CCn2c(=O)[nH]c3cccc(c32)[C@H]1O (single isomer, unassigned) [Example 78]		1.2 nM
CC(CCn1cnc2cc(F)c(F)cc21)N[C@@H]1CCn2c(=O)[nH]c3cccc(c32)[C@H]1O (single isomer, unassigned) [Example 79]		1 nM
CC(Cc1c[nH]c2ccccc12)N[C@@H]1CCn2c(=O)[nH]c3cccc(c32)[C@H]1O (stereo partly drawn) [Example 68, (6R,7R)-7-hydroxy-6-{[2-(1H-indol-3-yl)-1-methylethyl]amino}-4,5,6,7-tetrahydroimidazo[4,5,1-jk][1]benzazepin-2(1H)-one]		4.9 nM
